According to ChEMBL document CHEMBL3046703, “Study of mangiferin-receptor affinity by cell membrane chromatography using rat pancreas” (Med Chem Res, 2012):
Calls of active or inactive are those of the source. The calls are words filed in the database; no cut-off is given here.

Key:
Format in all cases: cell membranes
[1] = species on record: Rattus norvegicus; assay: Binding affinity to mangiferin receptor in rat islet cell membrane stationary phase assessed as ligand-membrane complex by infrared spectroscopic analysis
[2] = Binding affinity to mangiferin receptor in rat islet cell membrane stationary phase by chromatographic analysis
[3] = species on record: Rattus norvegicus; assay: Binding affinity to mangiferin receptor in rat islet cell membrane stationary phase assessed as total active binding sites per islet bed by chromatographic analysis

With `O=c1c2cc(O)c(O)cc2oc2cc(O)c([C@@H]3O[C@H](CO)[C@@H](O)[C@H](O)[C@H]3O)c(O)c12` [MANGIFERIN] the Activity [1] was “Active”, the Kd [2] was 400 nM and the Activity [3] was 22.7 µmol.
